Laboratory results as given in PubChem BioAssay AID2060346 (Molecular Pharmacology Branch, DTP, NCI, 2025).
pIC50: −log10 of the molar value. The source made the active and inactive calls. Rule for the calls: active = viability on the fitted dose curve at most 10% of control; inactive = the rest.

Tested on: CN0375-F725-PDC multi-cell spheroids, viability
Experiment: Anticancer human tumor CN0375-F725-PDC patient-derived colon carcinoma cell line growth inhibition [TAK]
Settings: for pIC50: curve of first compound; for viability, T/C: stronger effect = lower value
From the text: Combinatorial screen of targeted agents with TAK-243 and ipatasertib in multi-cell type tumor spheroids
A high-throughput screen of multi-cell type tumor spheroids was designed to identify active combinations of targeted small molecules and TAK-243 or ipatasertib. Complex spheroids include a stromal component modeled by human endothelial cells (HUVEC) and fibroblasts modeled by human mesenchymal stem cells (MSCs). The concentration ranges selected for each drug and investigational agent were based upon clinically achievable concentrations if the clinical Cmax of the agent was known.
Compounds. The drugs and investigational agents: TAK-243 (785004), ipatasertib (767898), everolimus (733504), selumetinib (741078), bortezomib (756655), trametinib (758246), ixazomib (758254), vemurafenib (761431), dabrafenib (764134), sapanisertib (764658), alpelisib (765974), and copanlisib (816437), were obtained from the National Cancer Institute (NCI) Developmental Therapeutics Program Chemical Repository. The FDA-approved anticancer drug set is available from the NCI Developmental Therapeutics Program. […] The stock solutions were prepared in dimethyl sulfoxide (DMSO, Sigma-Aldrich, St. Louis, MO, cat. D2650) at 800-fold the tested concentration and stored at -70 degrees C prior to their use. All drugs and investigational agents were tested over a range starting from a high concentration at or near the clinical Cmax and decreasing in half-log increments. If the clinical Cmax for an agent had not been determined, the highest concentration tested was 10 microM.
NCI60 Cell Culture. NCI60 cell lines were obtained from the NCI Developmental Therapeutics Program Tumor Repository. For each lot of cells, the Repository performed Applied Biosystems AmpFLSTR Identifiler testing with PCR amplification to confirm consistency with the published Identifier STR profile for each cell line. Cells were kept in continuous culture for no more than 20 passages. The optimal seeding densities for each of the cell lines at each time point assessed were determined prior to performing the concentration response studies. Briefly, the NCI60 human tumor lines were grown as monolayers in RPMI 1640 medium supplemented with 10% FBS and 2 mmol/L L-glutamine.
An additional 2 lines were from the NCI60 cell line panel including melanomas, MALME-3M and SK-MEL-2. Pooled donor human umbilical vein endothelial cells (HUVEC, Lonza, cat. CC-2519) and human mesenchymal stem cells (hMSC, Lonza, cat. PT-2501) were purchased from Lonza (Walkersville, MD).
PDMR cell lines were grown in complete medium (DC medium): Dulbecco's modified Eagle's medium (DMEM)/F12 supplemented with 5% fetal bovine serum (FBS), 2 mM L-glutamine, 100 U/mL penicillin and 100 µg/ml streptomycin, 0.4 µg/ml hydrocortisone, 10 ng/ml epidermal growth factor (EGF) recombinant human protein, 24 µg/mL adenine, and 0.1 mg/mL primocin. During culture from frozen stock vials, PDMR cells were cultured in the same medium containing 10 µM Y-27632 (see Table 3). The PDCs were cultured in complete DMEM/F12 media without 10 microM Y-27632 dihydrochloride for at least two passages prior to the screen. The pooled donor HUVEC and hMSC were cultured in endothelial cell growth medium 2 (PromoCell, Heidelberg, Germany, cat. C-22011) and mesenchymal stem cell growth medium 2 (PromoCell, cat. C-28009), respectively. For all experiments, HUVEC and hMSC were used at passages </=5.
For the pre-screen, cell seeding densities were determined from a titration spanning the range from 5,000 to 313 cells per well. The mct-spheroids including 60% malignant cells, 25% HUVEC and 15% MSC dispensed as a mixture into U-bottom Ultra-Low Attachment 384-well plates (Corning, NY)
High-throughput Drug Combination Screening.
Prior to their inoculation into 384-well plates, malignant cells, HUVEC, and hMSC were removed from T flasks using TrypLE express (Thermo Fisher Scientific, cat. 12605036) and harvested by centrifugation for 5 min at 233 x g. […]

[1] = second compound 0.3 µM, first compound 0.00949 µM
[2] = second compound 0.3 µM, first compound 0.03 µM
[3] = second compound 0.949 µM, first compound 0.00949 µM
[4] = second compound 0.949 µM, first compound 0.03 µM
[5] = second compound 3 µM, first compound 0.00949 µM
[6] = second compound 3 µM, first compound 0.03 µM
[7] = second compound 9.49 µM, first compound 0.00949 µM
[8] = second compound 9.49 µM, first compound 0.03 µM
[9] = second compound 30 µM, first compound 0.00949 µM
[10] = second compound 30 µM, first compound 0.03 µM
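Throughout, for pIC50: spheroids exposed to drugs for seven days.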
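Throughout, for viability, T/C: spheroids exposed to drugs for seven days.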

## CC(=O)Nc1cccc(-n2c(=O)n(C3CC3)c(=O)c3c(Nc4ccc(I)cc4F)n(C)c(=O)c(C)c32)c1 + CC(C)NCC(C(=O)N1CCN(c2ncnc3c2C(C)CC3O)CC1)c1ccc(Cl)cc1
Second compound 0.3 µM
  pIC50: 8.03
Second compound 0.949 µM
  pIC50: 8.25
Second compound 3 µM
  pIC50: 8.28
Second compound 9.49 µM
  pIC50: 8.31
Second compound 30 µM
  pIC50: 8.91
Second compound 0.3 µM, first compound 94.9 pM
  viability, T/C: 99.7%
Second compound 0.3 µM, first compound 0.0003 µM
  viability, T/C: 93%
Second compound 0.3 µM, first compound 0.000949 µM
  viability, T/C: 74.4%
Second compound 0.3 µM, first compound 0.003 µM
  viability, T/C: 68.9%
[1]
  viability, T/C: 48.6%
[2]
  viability, T/C: 33.7%
Second compound 0.949 µM, first compound 94.9 pM
  viability, T/C: 92.4%
Second compound 0.949 µM, first compound 0.0003 µM
  viability, T/C: 86.3%
Second compound 0.949 µM, first compound 0.000949 µM
  viability, T/C: 75.5%
Second compound 0.949 µM, first compound 0.003 µM
  viability, T/C: 57.1%
[3]
  viability, T/C: 44.3%
[4]
  viability, T/C: 31.5%
Second compound 3 µM, first compound 94.9 pM
  viability, T/C: 88.1%
Second compound 3 µM, first compound 0.0003 µM
  viability, T/C: 83.5%
Second compound 3 µM, first compound 0.000949 µM
  viability, T/C: 70%
Second compound 3 µM, first compound 0.003 µM
  viability, T/C: 56.3%
[5]
  viability, T/C: 43.6%
[6]
  viability, T/C: 30.1%
Second compound 9.49 µM, first compound 94.9 pM
  viability, T/C: 81.4%
Second compound 9.49 µM, first compound 0.0003 µM
  viability, T/C: 82.7%
Second compound 9.49 µM, first compound 0.000949 µM
  viability, T/C: 69.9%
Second compound 9.49 µM, first compound 0.003 µM
  viability, T/C: 57.4%
[7]
  viability, T/C: 40.3%
[8]
  viability, T/C: 26.1%
Second compound 30 µM, first compound 94.9 pM
  viability, T/C: 70%
Second compound 30 µM, first compound 0.0003 µM
  viability, T/C: 67.5%
Second compound 30 µM, first compound 0.000949 µM
  viability, T/C: 53%
Second compound 30 µM, first compound 0.003 µM
  viability, T/C: 36.1%
[9]
  viability, T/C: 24.1%
[10]
  viability, T/C: 13.6%

## CC(C)CC(NC(=O)C(Cc1ccccc1)NC(=O)c1cnccn1)B(O)O (stereo not given) + CC(C)NCC(C(=O)N1CCN(c2ncnc3c2C(C)CC3O)CC1)c1ccc(Cl)cc1
Second compound 0.3 µM
  pIC50: 8.13
Second compound 0.949 µM
  pIC50: 8.10
Second compound 3 µM
  pIC50: 8.10
Second compound 9.49 µM
  pIC50: 8.23
Second compound 30 µM
  pIC50: 8.60
Second compound 0.3 µM, first compound 31.6 pM
  viability, T/C: 100%
Second compound 0.3 µM, first compound 0.0001 µM
  viability, T/C: 99%
Second compound 0.3 µM, first compound 0.000316 µM
  viability, T/C: 93.6%
Second compound 0.3 µM, first compound 0.001 µM
  viability, T/C: 99.5%
Second compound 0.3 µM, first compound 0.00316 µM
  viability, T/C: 92.1%
Second compound 0.3 µM, first compound 0.01 µM
  viability, T/C: 34.9%
Second compound 0.949 µM, first compound 31.6 pM
  viability, T/C: 99.6%
Second compound 0.949 µM, first compound 0.0001 µM
  viability, T/C: 101%
Second compound 0.949 µM, first compound 0.000316 µM
  outcome: inactive
Second compound 0.949 µM, first compound 0.001 µM
  viability, T/C: 90.3%
Second compound 0.949 µM, first compound 0.00316 µM
  viability, T/C: 93%
Second compound 0.949 µM, first compound 0.01 µM
  viability, T/C: 38.8%
Second compound 3 µM, first compound 31.6 pM
  viability, T/C: 89.3%
Second compound 3 µM, first compound 0.0001 µM
  viability, T/C: 93%
Second compound 3 µM, first compound 0.000316 µM
  viability, T/C: 91.8%
Second compound 3 µM, first compound 0.001 µM
  viability, T/C: 93.1%
Second compound 3 µM, first compound 0.00316 µM
  viability, T/C: 82.8%
Second compound 3 µM, first compound 0.01 µM
  viability, T/C: 41.2%
Second compound 9.49 µM, first compound 31.6 pM
  viability, T/C: 85.2%
Second compound 9.49 µM, first compound 0.0001 µM
  viability, T/C: 95.3%
Second compound 9.49 µM, first compound 0.000316 µM
  viability, T/C: 87.2%
Second compound 9.49 µM, first compound 0.001 µM
  viability, T/C: 93.6%
Second compound 9.49 µM, first compound 0.00316 µM
  viability, T/C: 76.7%
Second compound 9.49 µM, first compound 0.01 µM
  viability, T/C: 26.6%
Second compound 30 µM, first compound 31.6 pM
  viability, T/C: 72.3%
Second compound 30 µM, first compound 0.0001 µM
  viability, T/C: 86.8%
Second compound 30 µM, first compound 0.000316 µM
  viability, T/C: 84.4%
Second compound 30 µM, first compound 0.001 µM
  viability, T/C: 76.6%
Second compound 30 µM, first compound 0.00316 µM
  viability, T/C: 42.9%
Second compound 30 µM, first compound 0.01 µM
  viability, T/C: 9.84%

## Cn1cnc2c(F)c(Nc3ccc(Br)cc3Cl)c(C(=O)NOCCO)cc21 + CC(C)NCC(C(=O)N1CCN(c2ncnc3c2C(C)CC3O)CC1)c1ccc(Cl)cc1
Second compound 0.3 µM
  pIC50: 6.59
Second compound 0.949 µM
  pIC50: 6.65
Second compound 3 µM
  pIC50: 6.79
Second compound 9.49 µM
  pIC50: 6.75
Second compound 30 µM
  pIC50: 7.15
[1]
  viability, T/C: 91.4%
[2]
  viability, T/C: 75.3%
Second compound 0.3 µM, first compound 0.0949 µM
  viability, T/C: 58.8%
Second compound 0.3 µM, first compound 0.3 µM
  viability, T/C: 50%
Second compound 0.3 µM, first compound 0.949 µM
  viability, T/C: 38.6%
Second compound 0.3 µM, first compound 3 µM
  viability, T/C: 30.6%
[3]
  viability, T/C: 83.5%
[4]
  viability, T/C: 78.6%
Second compound 0.949 µM, first compound 0.0949 µM
  viability, T/C: 57.6%
Second compound 0.949 µM, first compound 0.3 µM
  viability, T/C: 48.3%
Second compound 0.949 µM, first compound 0.949 µM
  viability, T/C: 36%
Second compound 0.949 µM, first compound 3 µM
  viability, T/C: 31.1%
[5]
  viability, T/C: 79.6%
[6]
  viability, T/C: 72%
Second compound 3 µM, first compound 0.0949 µM
  viability, T/C: 56.9%
Second compound 3 µM, first compound 0.3 µM
  viability, T/C: 41.4%
Second compound 3 µM, first compound 0.949 µM
  viability, T/C: 34.2%
Second compound 3 µM, first compound 3 µM
  viability, T/C: 29.3%
[7]
  viability, T/C: 77.8%
[8]
  viability, T/C: 69.4%
Second compound 9.49 µM, first compound 0.0949 µM
  viability, T/C: 58.2%
Second compound 9.49 µM, first compound 0.3 µM
  viability, T/C: 42.7%
Second compound 9.49 µM, first compound 0.949 µM
  viability, T/C: 32.7%
Second compound 9.49 µM, first compound 3 µM
  viability, T/C: 23.2%
[9]
  viability, T/C: 66%
[10]
  viability, T/C: 64.2%
Second compound 30 µM, first compound 0.0949 µM
  viability, T/C: 43.5%
Second compound 30 µM, first compound 0.3 µM
  viability, T/C: 31.6%
Second compound 30 µM, first compound 0.949 µM
  viability, T/C: 22.1%
Second compound 30 µM, first compound 3 µM
  viability, T/C: 16.1%
